In PubChem BioAssay AID1259408 (Genetic Toxicology Data Bank (GENE-TOX), 2018) one finds mutagenic call and call data, which are given here for 23 molecules.

The subject of this series is GENE-TOX genotoxicity assays, various organisms and cells. In words: GENE-TOX mutagenicity studies. The conditions noted are these: for call: Assay Type: In vivo carcinogenicity studies.
Where [1] appears, read: Species/Cell Type: Mouse, Sex: Male, Assay Type: Sperm morphology, Assay Code: SPI-, Evaluation Type: Evaluation A (Pre-1980).
Where [2] appears, read: Species/Cell Type: Escherichia coli polA (W3110 vs P3478), Assay Type: Rec-assay, DNA effects (bacterial DNA repair), Assay Code: RE2+, Evaluation Type: Evaluation A (Pre-1980).
[3] abbreviates: Species/Cell Type: Escherichia coli polA (W3119 vs P3478), Assay Type: Rec-assay, DNA effects (bacterial DNA repair), Assay Code: RE1T, Evaluation Type: Evaluation A (Pre-1980).
The mark [4] stands for this setting: Species/Cell Type: Human diploid fibroblasts, Assay Type: Unscheduled DNA synthesis (UDS) in vitro, DNA effects, Assay Code: UDH-, Evaluation Type: Evaluation A (Pre-1980).
[5] abbreviates: Species/Cell Type: Salmonella typhimurium (one or more of the five standard strains: TA98, TA100, TA1535, TA1537, and TA1538), Assay Type: Histidine reverse gene mutation, Ames assay, Assay Code: SAL+*, Activation: With metabolic activation, Evaluation Type: Evaluation A (Pre-1980).
Where [6] appears, read: Species/Cell Type: Mammalian polychromatic erythrocytes, Assay Type: Micronucleus test, chromosome aberrations, Assay Code: MNT+, Evaluation Type: Evaluation B (Post-1980).
[7] abbreviates: Species/Cell Type: Salmonella typhimurium (one or more of the five standard strains: TA98, TA100, TA1535, TA1537, and TA1538), Assay Type: Histidine reverse gene mutation, Ames assay, Assay Code: SAL+, Evaluation Type: Evaluation A (Pre-1980).
[8] abbreviates: Species/Cell Type: Syrian hamster embryo (SA7/SHE) cells, Assay Type: Cell transformation, viral enhanced, Assay Code: CT7+, Evaluation Type: Evaluation A (Pre-1980).
Where [9] appears, read: Species/Cell Type: Drosophila melanogaster, Assay Type: Sex-linked recessive lethal gene mutation, Assay Code: SRL+, Evaluation Type: Evaluation A (Pre-1980).
Setting [10] is: Species/Cell Type: Human lymphocytes, Assay Type: Sister-chromatid exchange (SCE) in vitro, Assay Code: SCL+D, Dose Response: With dose response, Evaluation Type: Evaluation B (Post-1980).
Where [11] appears, read: Species/Cell Type: Human, Assay Type: Sister-chromatid exchange (SCE) in vitro, Assay Code: SC1+D, Dose Response: With dose response, Evaluation Type: Evaluation B (Post-1980).
Where [12] appears, read: Species/Cell Type: Nonhuman, Assay Code: CCG+, Evaluation Type: Evaluation A (Pre-1980).
[13] abbreviates: Species/Cell Type: Nonhuman, Assay Type: Sister-chromatid exchange (SCE) in vitro, Assay Code: SC2+D, Dose Response: With dose response, Evaluation Type: Evaluation A (Pre-1980).
Where [14] appears, read: Species/Cell Type: Chinese hamster lung (V79) cells, Assay Type: Forward gene mutation at the HPRT or ouabain locus, Assay Code: V79+, Evaluation Type: Evaluation A (Pre-1980).

Activity calls are given as the source filed them. The rule behind the calls is not given here.

Regarding `Cc1cc(C(=C2C=CC(=Nc3ccc(S(=O)(=O)O)cc3)C=C2)c2ccc(Nc3ccc(S(=O)(=O)O)cc3)cc2)cc(S(=O)(=O)O)c1N`, the mutagenic call (Species/Cell Type: Bacillus subtilis (H17 vs M45), Assay Type: Rec-assay, spot test, DNA effects (bacterial DNA repair), Assay Code: REWT, Evaluation Type: Evaluation A (Pre-1980)) is reported as “no conclusion”.

Turning to `Nc1ccc(F)cc1`, under setting [1], the mutagenic call is “inactive; negative”.

For the molecule `CC(=O)Nc1ccc2c(c1)Cc1cccc(O)c1-2`, the mutagenic call under setting [2] is “active; positive”; the mutagenic call under setting [3] is on record as “no conclusion”; the mutagenic call under setting [4] is “inactive; negative”; the mutagenic call (Species/Cell Type: Saccharomyces cerevisiae, Assay Type: Mitotic recombination or gene conversion, Assay Code: YEH-, Evaluation Type: Evaluation A (Pre-1980)) is “inactive; negative”; the mutagenic call under setting [5] was “active; positive”.

With `CC(CN(C)C)Nc1c2ccccc2nc2cccc([N+](=O)[O-])c12` (stereo unspecified), the mutagenic call was “active; positive” (Species/Cell Type: Human lymphocytes, Assay Type: Sister-chromatid exchange (SCE) in vitro, Assay Code: SCL+, Evaluation Type: Evaluation B (Post-1980)) and “active; positive” (Species/Cell Type: Human, Assay Type: Sister-chromatid exchange (SCE) in vitro, Assay Code: SC1+, Evaluation Type: Evaluation B (Post-1980)).

In the case of `Clc1ccccc1`, under setting [6], the mutagenic call is “active; positive”.

`Nc1c2ccccc2nc2ccccc12`: the mutagenic call by setting is: under setting [4], “inactive; negative”; (Species/Cell Type: Nonhuman, Assay Type: Sister-chromatid exchange (SCE) in vitro, Assay Code: SC2+, Evaluation Type: Evaluation B (Post-1980)) “active; positive”; under setting [7], “active; positive”.

In the case of `Cl.[Pt]`, the mutagenic call under setting [8] is “active; positive”.

Consider `O=C1c2ccccc2C(=O)c2c(O)c(S(=O)(=O)O)cc(O)c21`, for which the mutagenic call under setting [7] was “active; positive”.

On to `N[C@@H](Cc1ccc(N(CCCl)CCCl)cc1)C(=O)O`, for which the mutagenic call was “active; positive” under setting [9]; “no conclusion” (Species/Cell Type: Drosophila melanogaster, Sex: Male, Assay Type: Heritable translocation test, chromosome aberrations, Assay Code: DHTT, Evaluation Type: Evaluation A (Pre-1980)); “active; positive” under setting [2]; “no conclusion” under setting [3]; “active; positive” (Species/Cell Type: Human cell culture, Assay Type: Chromosome aberrations in vitro, Assay Code: CYZ+, Evaluation Type: Evaluation A (Pre-1980)); “active; positive” (Species/Cell Type: Human lymphocytes, Assay Type: Sister-chromatid exchange (SCE) in vitro, Assay Code: SCL+, Evaluation Type: Evaluation A (Pre-1980)). For the same molecule, the mutagenic call under setting [10] was “active; positive”; the mutagenic call (Species/Cell Type: Human lymphocytes, Assay Type: Sister-chromatid exchange (SCE) in vivo, Assay Code: SCY+, Evaluation Type: Evaluation B (Post-1980)) is “active; positive”; the mutagenic call under setting [11] was “active; positive”; the mutagenic call (Species/Cell Type: Mouse (C3H/10T1/2) cells, Assay Type: Cell transformation, Assay Code: CTH+, Evaluation Type: Evaluation A (Pre-1980)) is “active; positive”; the mutagenic call (Species/Cell Type: Nonhuman, Assay Type: Chromosome aberrations in vitro, Assay Code: CY&+, Evaluation Type: Evaluation A (Pre-1980)) was “active; positive”; the mutagenic call under setting [13] is “active; positive”. Further, the mutagenic call under setting [7] is “active; positive”. Further, the call under setting [12] is “active; positive”.

For `CCC(C)c1ccccc1OC(=O)N(C)N=O` (stereo unspecified), the mutagenic call by setting is: (Species/Cell Type: Bacillus subtilis (H17 vs M45T), Assay Type: Rec-assay, spot test, DNA effects (bacterial DNA repair), Assay Code: REX+, Evaluation Type: Evaluation A (Pre-1980)) “active; positive”; (Species/Cell Type: Escherichia coli WP2, Assay Type: Tryptophan reverse gene mutation, Assay Code: WP2+, Evaluation Type: Evaluation A (Pre-1980)) “active; positive”.

On to `[Cl][Bi]([Cl])[Cl]`, for which the mutagenic call (Species/Cell Type: Bacillus subtilis (H17 vs M45), Assay Type: Rec-assay, spot test, DNA effects (bacterial DNA repair), Assay Code: REW-, Evaluation Type: Evaluation A (Pre-1980)) is “inactive; negative”.

With `O=C(NC(=O)c1c(F)cccc1F)Nc1ccc(Cl)cc1`, the mutagenic call is “no conclusion” (Species/Cell Type: Mammalian polychromatic erythrocytes, Assay Type: Micronucleus test, chromosome aberrations, Assay Code: MNTT, Evaluation Type: Evaluation A (Pre-1980)); “no conclusion” (Species/Cell Type: Mouse lymphoma (L5178Y) cells, Assay Type: Forward gene mutation at the thymidine kinase (TK) locus, chromosome aberrations, Assay Code: L51T, Evaluation Type: Evaluation A (Pre-1980)); “inactive; negative” (Species/Cell Type: Salmonella typhimurium (one or more of the five standard strains: TA98, TA100, TA1535, TA1537, and TA1538), Assay Type: Histidine reverse gene mutation, Ames assay, Assay Code: SAL-, Evaluation Type: Evaluation A (Pre-1980)).

As for `CNc1nc2c(c(=O)n(C)c(=O)n2C)n1C`, the mutagenic call (Species/Cell Type: Allium cepa, Assay Type: Chromosome aberrations, Assay Code: ALC+, Evaluation Type: Evaluation A (Pre-1980)) is “active; positive”.

With `COc1cc2c(c(O)c1OC)C13CCC(OC)CC1N(CC3)C2` (stereo unspecified), the mutagenic call under setting [6] is “active; positive”.

Take `CCN(CCO)CCCNc1c2ccccc2nc2cc3ccccc3cc12`: the mutagenic call (Species/Cell Type: Chinese hamster ovary (CHO) cells, Assay Type: Forward gene mutation at the HPRT locus, Assay Code: CHOT, Evaluation Type: Evaluation B (Post-1980)) is “no conclusion”.

With `CCN(CC)CC[NH+]([O-])c1ccc(C)c2sc3cc(Cl)ccc3c(=O)c12` (stereo unspecified), under setting [5], the mutagenic call was “active; positive”.

Take `CCCCCC(=O)C(CCCC)c1oc(=O)c(CCCC)c(O)c1CCCC` (stereo unspecified): the mutagenic call is recorded as “no conclusion” (Species/Cell Type: Human lymphocytes, Assay Type: Sister-chromatid exchange (SCE) in vitro, Assay Code: SCLT, Evaluation Type: Evaluation B (Post-1980)) and “no conclusion” (Species/Cell Type: Human, Assay Type: Sister-chromatid exchange (SCE) in vitro, Assay Code: SC1T, Evaluation Type: Evaluation B (Post-1980)).

Turning to `O=[N+]([O-])c1ccc(Oc2ccc(C(F)(F)F)cc2[N+](=O)[O-])cc1`, the mutagenic call (Species/Cell Type: Saccharomyces cerevisiae, Assay Type: Mitotic recombination or gene conversion, Assay Code: YEC-, Evaluation Type: Evaluation A (Pre-1980)) was “inactive; negative”.

Turning to `Cc1c2c(c(CO)c3ccc4ccccc4c13)[C@H](O)[C@@H](O)C=C2`, the mutagenic call under setting [14] is “active; positive”. Also, for the setting “Species/Cell Type: Nonhuman, Assay Code: CCGT, Evaluation Type: Evaluation A (Pre-1980)”, the call is given as “no conclusion”.

Take `C=Cc1ccc(C)cc1`: the mutagenic call by setting is: under setting [10], “active; positive”; under setting [11], “active; positive”.

As to `CCCCCN(CCCC)N=O`, the mutagenic call under setting [5] was “active; positive”.

In the case of `CCN(CCCO)N=O`, the mutagenic call under setting [5] is “active; positive”.

Turning to `CC(=O)OC/N=[N+](/C)[O-]`, the mutagenic call is “active; positive” under setting [14]; “active; positive” under setting [9]; “active; positive” (Species/Cell Type: Escherichia coli polA (W3119 vs P3478), Assay Type: Rec-assay, DNA effects (bacterial DNA repair), Assay Code: RE1+, Evaluation Type: Evaluation A (Pre-1980)); “active; positive” (Species/Cell Type: Fischer rat embryo (RLV/1706) cells, Assay Type: Cell transformation, viral enhanced, Assay Code: CTR+, Evaluation Type: Evaluation A (Pre-1980)); “active; positive” (Species/Cell Type: Mouse (BALB/c-3T3) cells, Assay Type: Cell transformation, Assay Code: CTB+, Evaluation Type: Evaluation A (Pre-1980)); “inactive; negative” under setting [1]. Moreover, the mutagenic call by setting is: under setting [13], “active; positive”; (Species/Cell Type: Nonhuman, Assay Type: Sister-chromatid exchange (SCE) in vivo, Assay Code: SC3+, Evaluation Type: Evaluation B (Post-1980)) “active; positive”; (Species/Cell Type: Saccharomyces cerevisiae, Assay Type: Mitotic recombination or gene conversion, Assay Code: YEH+, Evaluation Type: Evaluation A (Pre-1980)) “active; positive”; (Species/Cell Type: Salmonella typhimurium, Assay Type: Forward and reverse gene mutation, host-mediated assay, Assay Code: HMA+, Evaluation Type: Evaluation A (Pre-1980)) “active; positive”; under setting [8], “active; positive”; (Species/Cell Type: Syrian hamster embryo (SHE) cells, Assay Type: Cell transformation, clonal assay, Assay Code: CTC+, Evaluation Type: Evaluation A (Pre-1980)) “active; positive”. Further, the call under setting [12] is “active; positive”.
